Tests used:
[1] = biological target: Acetylcholinesterase (Electrophorus electricus) (UniProt O42275); test: Inhibition of electric eel AChE assessed as minimum concentration required to inhibit enzyme activity after 20 mins by TLC bioautographic assay
[2] = biological target: Acetylcholinesterase (Electrophorus electricus) (UniProt O42275); test: Inhibition of electric eel AChE using acetylthiocholine as substrate at 350 uM by Ellman's method

Acetylcholinesterase (Electrophorus electricus), sequence (O42275 24-633 limits assumed): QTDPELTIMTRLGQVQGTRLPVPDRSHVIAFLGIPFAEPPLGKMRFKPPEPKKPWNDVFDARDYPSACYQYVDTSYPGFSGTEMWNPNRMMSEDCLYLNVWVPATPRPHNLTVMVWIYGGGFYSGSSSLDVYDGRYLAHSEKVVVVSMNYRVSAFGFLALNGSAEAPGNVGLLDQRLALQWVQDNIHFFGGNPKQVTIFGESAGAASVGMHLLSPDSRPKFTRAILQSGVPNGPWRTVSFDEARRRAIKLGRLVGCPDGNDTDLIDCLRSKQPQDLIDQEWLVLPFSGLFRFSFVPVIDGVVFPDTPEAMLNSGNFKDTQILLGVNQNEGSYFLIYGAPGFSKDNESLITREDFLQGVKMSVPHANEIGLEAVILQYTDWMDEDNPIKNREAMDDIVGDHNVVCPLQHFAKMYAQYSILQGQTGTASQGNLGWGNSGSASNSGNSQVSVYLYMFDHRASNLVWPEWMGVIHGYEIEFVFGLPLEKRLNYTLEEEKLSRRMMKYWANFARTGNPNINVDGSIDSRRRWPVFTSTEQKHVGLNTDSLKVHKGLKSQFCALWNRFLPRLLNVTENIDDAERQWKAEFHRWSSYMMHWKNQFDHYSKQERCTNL

Row | SMILES | MIC [1] [µg] | inhibition [2] [%]
1 | CNC(=O)Oc1ccc2c(c1)[C@]1(C)CCN(C)[C@@H]1N2C | 0.1 | 94
2 | COC(=O)CCCc1ccc(O)c(C)n1 | 3 | 40
3 | CCCCC(O)CCCCCCCc1ccc(O)c(C)n1 (racemic) | 1.5 | 19
4 | CCCCCC(O)CCCCCCc1ccc(O)c(C)n1 (racemic) | 0.8 | 52
5 | Cc1nc(CCCCCCC(O)CCCCCO)ccc1O (racemic) | 1.5 | 51
6 | Cc1nc(CCCCCCCC(O)CCCCO)ccc1O (racemic) | 6 | 28

From ChEMBL document CHEMBL2021839, “Pyridine alkaloids from Senna multijuga as acetylcholinesterase inhibitors” (J Nat Prod, 2012)
